Assays:
Tumor Cell line [1] = assay: Tested for in vitro cytotoxicity of 60 human tumor cell lines in National Cancer Institute (NCI); format: functional
Tumor Cell line [2] = assay: Tested for in vitro cytotoxicity of 60 human tumor cell lines in National Cancer Institute (NCI) and the value was expressed as LC50; format: functional; settings: read-out: LC50 (the source's name)

Row | Compound | GI50 (Tumor Cell line [1]) | TGI (Tumor Cell line [1]) | CC50 (Tumor Cell line [2])
1 | C=C(Cl)[C@](Cl)(CBr)CCC(Cl)=C(C)C | 0.741 µM | 3.39 µM | 17 µM
2 | C=C(Cl)/C(=C\Br)CCC=C(C)C | 19.5 µM | 44.7 µM | > 100 µM
3 | C=CC1=CCC(Br)C(C)(C)C1Cl (stereo unspecified) | > 100 µM | > 100 µM | > 100 µM
4 | C=C(Cl)[C@](Cl)(CBr)CC[C@H](Cl)C(C)(C)Br | 1.32 µM | 4.47 µM | 16.2 µM
5 | CC1(C)[C@H](Cl)C=C/C(=C\CCl)[C@@H]1Cl | 20 µM | 47.9 µM | > 100 µM
6 | CC1(C)C(Cl)CC(Br)/C(=C\CCl)C1Cl (stereo unspecified) | 1.15 µM | 4.68 µM | 20 µM
7 | C=C(Cl)[C@](Cl)(CBr)CCC=C(C)C | 47 µM | > 100 µM | > 100 µM
8 | CC1(C)C(Br)=C(C(Cl)CBr)CCC1Br (stereo unspecified) | 21.9 µM | 45.7 µM | 93.3 µM
9 | C=C(Cl)[C@](Cl)(CBr)CC[C@@H](Br)C(C)(C)Cl [HALOMON] | 0.676 µM | 3.02 µM | 11.5 µM
10 | C=CC(Cl)(CBr)CCC=C(C)C (stereo unspecified) | 33.1 µM | > 100 µM | > 100 µM
11 | C=C(Cl)[C@](Cl)(CBr)CCC(Br)=C(C)C | 0.691 µM | 3.02 µM | 13.5 µM
12 | C=C[C@](Cl)(CBr)CC[C@@H](Br)C(C)(C)Cl | 26.1 µM | 77 µM | > 100 µM
